Molecules are shown by their SMILES. Some results are limits rather than exact numbers.

For data set [1], the target named is T1, HCV RNA polymerase (RNA dependent RNA polymerase, NS5B) (Hepatitis C virus genotype 1b, UniProt P26663).
T1 construct: NS5B region (1773 bps) was amplified by PCR and cloned into pVLHIS; (His)6; made in house; host or cells: Sf9 insect cells infected with recombinant baculovirus (pVLHIS-NS5B)
Kind of data set: Inhibitory effect on activity of recombinant HCV RNA polymerase in vitro. Format: biochemical, Hepatitis C virus (HCV-1b type). Here is the method: Test of Inhibitory Effect on Activity of HCV RNA Polymerase (RNA Dependent RNA Polymerase, NS5B) In Vitro
The following in vitro experiments were conducted to find out the effect of inhibition activity of compounds of the present invention against HCV RNA Polymerase (RNA dependent RNA polymerase, NS5B).
HCV cDNA was obtained from the blood of HCV-1b type HCV patient and NS5B region (1773 bps) was amplified by PCR and cloned into pVLHIS, a baculovirus transfer vector, to prepare recombinant transfer vector. The prepared transfer vector and the wild-type AcNPV vector were cotransfected into Sf 9 cell line to yield recombinant baculovirus with the histidine-tagged recombinant vector pVLHIS-NS5B. Sufficiently cultured insect cells were infected with the resulting recombinant baculovirus and cultured in Grace' medium containing 10% FBS for 3–4 days. The culture broth was centrifuged to obtain only the infected cells. The cells were washed three times with PBS and resuspended in binding buffer [50 mM Na-phosphate (pH 8.0), 30 mM NaCl, 10 mM imidazole, 1 mM DTT, 10% glycerol, 1% NP-40], sonicated and the clearized lysate was obtained. Recombinant NS5B was purified by affinity column chromatography using a Ni-NTA His bind resin (Novagen) to produce pure NS5B protein. The (His)6-tagged NS5B was bound to Ni-NTA resin and washed with the binding buffer containing 50 mM imidazole. The bound NS5B was eluted with the binding buffer containing imidazole in a step-gradient manner (100–300 mM). The NS5B protein fractions were dialyzed against buffer [50 mM Tris-HCl, 50 mM NaCl, 1 mM DTT, […], 10% glycerol], followed by at −70° C. in a small aliquot.
The 3′UTR cDNA (220 bp) of HCV was obtained from 1b HCV RNA of the blood of a hepatitis C patient by PCR and cloned into pcDNA3 vector. Linearized DNA fragment containing 3′-UTR was prepared using the restriction enzyme, EcoRI and used as a temperate for in vitro transcription using T7 RNA ploymerase to prepare RNA fragment containing 3′-UTR.
In Vitro inhibitory activity of the compounds of the present invention against recombinant HCV RNA polymerase was measured as follows.
A streptavidin-coated well plate was prepared suitable for the sample to be examined. 25 μl of 2× assay buffer [50 mM Tris-Cl (pH 7.5), 100 mM NaCl, 10 mM MgCl2, 20 mM KCl, 1 mM EDTA, 1 mM DTT] and 10 μl of purified HCV RNA polymerase 200 ng and 3′-UTR template RNA were added to each well. Then, 5 μl of the sample to be examined was added to have final concentrations of 10, 1, 0.1 and 0.01 μg/mL. […] The optical density (OD) was measured using an ELISA reader (Bio-Tek instrument Co.) at 405 nm. The inhibitory effect on the activity of HCV polymerase was calculated by subtracting the OD of the positive control without the sample.

The nature of data set [2]: Cytotoxicity assay (MTT assay). The class given is cell-based. The settings on record: human, HepG2 cells, HepG 2 cell line. Here is the method:
To find out cytotoxicity of 6-methylpyridine derivative of the chemical formula 1, an in vitro experiment was conducted on the basis of the generally known MTT assay using HepG 2 cell line.
For orientation: Tetrazolium assays rely on reduction of a dye to a coloured formazan, in cell work by metabolically active cells.

T1 sequence (P26663 2420-3010): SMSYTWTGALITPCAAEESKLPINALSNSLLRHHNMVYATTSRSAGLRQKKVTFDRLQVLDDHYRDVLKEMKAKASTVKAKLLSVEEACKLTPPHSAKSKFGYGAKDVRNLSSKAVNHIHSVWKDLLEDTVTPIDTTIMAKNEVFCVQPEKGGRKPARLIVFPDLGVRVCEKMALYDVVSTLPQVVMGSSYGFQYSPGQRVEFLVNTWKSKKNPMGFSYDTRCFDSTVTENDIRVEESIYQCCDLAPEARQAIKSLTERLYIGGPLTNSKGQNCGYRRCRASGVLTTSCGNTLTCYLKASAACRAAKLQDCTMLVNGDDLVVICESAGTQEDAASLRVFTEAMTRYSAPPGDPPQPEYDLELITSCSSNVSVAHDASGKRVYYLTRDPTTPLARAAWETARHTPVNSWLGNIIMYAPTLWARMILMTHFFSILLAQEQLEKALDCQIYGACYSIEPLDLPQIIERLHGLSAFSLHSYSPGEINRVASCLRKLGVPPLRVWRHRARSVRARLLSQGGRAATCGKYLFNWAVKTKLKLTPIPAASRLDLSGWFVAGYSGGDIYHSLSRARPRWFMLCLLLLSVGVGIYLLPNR

`Cc1ccc(C(=O)O)c(Nc2ccc(N3CCOCC3)cc2)n1` [Example 1, 6-methyl-2-[4-(4-morpholino)anilino] nicotinic acid]: the “Inhibition of activity of HCV RNA polymerase (%)” value in data set [1] (0.01 μg/ml) was 46%; in data set [1] (0.1 μg/ml), 65%; in data set [1] (1 μg/ml) it was 82%; in data set [1] (10 μg/ml) it was 99%. The molecule also showed a CC50 in data set [2] of more than 100 µg/mL.

For orientation: CC50 means the concentration giving 50% cytotoxicity.

These data come from patent publication US7244731B2, “6-Methylpyridine derivatives, method for preparing thereof and antiviral pharmaceutical composition comprising the same” (B & C Biopharm, priority 2002, dated 2007).
